Experiments:
[1] = test system: inflammatory cells infiltrating into the conjunctiva; assay: ragweed pollen-induced conjunctivitis model in Sult2B1b gene knockout mice, application to the eyes; assay type: in vivo, mouse; settings: applied into the eyes before and after topical challenge
Method: An examination was performed on conjunctivitis models induced by sensitizing Sult2B1b gene hetero-type mice (+/−) and Sult2B1b gene knockout mice (−/−) with ragweed pollen and topically challenged with the same antigen at 10 and 12 days later. The eyeball section of each category of the mice was subjected to hematoxylin-eosin (HE) staining and observed using an optical microscope. Thereafter, the Sult2B1b gene knockout mice (−/−) were exposed to ragweed pollen, and cholesterol 3-sulfate was applied into the eyes of the mice before and after the topical challenge with ragweed pollen. […] As a control, a mouse for whom only a vehicle was applied into its eyes was used.

[2] = molecular target: T1, DOCK2DHR-2 (lobe B and lobe C of the DHR-2 domain of DOCK2) (Homo sapiens, UniProt Q92608); assay: in-vitro GEF assay, Rac activation by DOCK2 DHR-2 domain with various steroid compounds (Experimental Example 2); assay type: biochemical; settings: IC50 against the Rac activation by DOCK2DHR-2, Experimental Example 2, Table 1
T1 construct: polypeptide fragments corresponding to a DHR-2 domain including the lobe B and the lobe C of DOCK2; Histidine-SUMO (N); made in house; host or cells: E. coli Arctic express DE3 (pET28a); Rac in E. coli BL21 DE3 (pGEX-6P-1)
T1 sequence (Q92608 1196-1622): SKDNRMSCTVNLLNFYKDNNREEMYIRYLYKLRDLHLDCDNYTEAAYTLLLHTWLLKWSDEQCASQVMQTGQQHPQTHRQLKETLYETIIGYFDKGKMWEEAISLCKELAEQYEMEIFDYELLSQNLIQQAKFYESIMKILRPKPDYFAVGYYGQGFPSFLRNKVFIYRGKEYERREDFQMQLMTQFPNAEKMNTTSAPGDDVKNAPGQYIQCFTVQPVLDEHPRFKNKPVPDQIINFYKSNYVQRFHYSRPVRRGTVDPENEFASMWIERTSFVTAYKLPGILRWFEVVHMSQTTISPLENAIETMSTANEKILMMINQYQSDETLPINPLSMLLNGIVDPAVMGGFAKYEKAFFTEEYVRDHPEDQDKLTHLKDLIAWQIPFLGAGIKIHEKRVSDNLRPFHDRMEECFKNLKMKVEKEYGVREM
Method: An examination was performed using various steroid compounds to test their effects on the Rac activation induced by proteins composed of the lobe B and the lobe C of the DHR-2 domain of DOCK2.
As the steroid compounds, cholesterol 3-sulfate (hereinafter, referred to as “C3S” in some cases), cholesterol, cholesterol 3-acetate (hereinafter, referred to as “C3A” in some cases), pregnenolone 3-sulfate (hereinafter, referred to as “PREG3S” in some cases), dehydroepiandrosterone (hereinafter, referred to as “DHEA” in some cases), dehydroepiandrosterone 3-sulfate (hereinafter, referred to as “DHEA3S” in some cases), estrone 3-sulfate (hereinafter, referred to as “Estrone3S” in some cases), estriol 3-sulfate (hereinafter, referred to as “Estriol3S” in some cases), and estradiol 3-sulfate (hereinafter, referred to as “Estradiol3S” in some cases) were used.
More specifically, a DOCK2-DHR-2 domain protein prepared by the same method as described above was incubated for 20 minutes at room temperature in the presence of various steroid compounds at a predetermined concentration dissolved in DMSO or in the presence of DMSO alone (control) under the shielded condition from light, thereby preparing a pretreated substance of GEF. The concentration of DMSO was adjusted such that it became 3% (1% in the final reaction solution) in all samples. Then, by in-vitro GEF assay in which Rac and Bodipy-FL-GTP prepared by the same method as described above were used, Rac activation by the DHR-2 domain was measured.

[3] = molecular target: T2, protein composed of the lobe B and the lobe C of the DHR-2 domain of DOCK2 (Homo sapiens, UniProt Q92608); assay: ELISA binding of steroid compounds to DHR-2 domain of DOCK2; settings: steroid immobilized at 100 μg/ml, protein 2 μg/mL
T2 construct: the HIS-SUMO tagged protein composed of the lobe B and the lobe C of the DHR-2 domain of DOCK2; made in house; host or cells: E. coli Arctic express DE3 (pET28a)
T2 sequence (Q92608 1196-1622): T1 sequence (Q92608 1196-1622)
Method: First, various steroid compounds prepared at 100 μg/ml by using 100% methanol were added in an amount of 50 μL to a 96-well plate for ELISA (trade name “Immulon 4HBX”, Thermo Scientific) and immobilized for 1 hour in a clean bench by air drying. Subsequently, 5% bovine serum albumin (BSA) diluted with TBS (20 mM Tris-HCl-150 mM NaCl, pH 7.5) was added thereto in an amount of 180 μL, the steroid compounds were incubated for 6 hours at 4° C., and the wells were blocked. Thereafter, each of the wells was rinsed three times with 180 μL of PBS-0.01% Tween-20. […] Then, each of the wells was rinsed three times with 180 μL of PBS-0.01% Tween-20. Subsequently, horseradish peroxidase (HRP)-labeled histidine probe (Thermo Scientific) diluted 5,000× was added in an amount of 100 μL to each well, and allowed to incubate for 1.5 hours at room temperature. Thereafter, each of the wells was rinsed three times with 180 μL of PBS-0.01% Tween-20, a 3,3′,5,5′-tetramethyl benzidine (TMB) solution (Thermo Scientific) as an HRP chromogenic substrate was added in an amount of 100 μL to each well so as to initiate a chromogenic reaction, and a stop solution (0.16 M sulfuric acid, Thermo Scientific) was added in an amount of 100 μL to each well so as to stop the reaction. Then, the absorbance at a wavelength of 450 nm was measured.

[4] = molecular target: T3, binding of the DHR-2 domain of DOCK2 to Rac (Homo sapiens, UniProt Q92608); assay: pull-down assay using GST-Rac beads, binding of DOCK2 DHR-2 to Rac; settings: 150 μM
T3 construct: 1 μg of a protein composed of the lobe B and the lobe C of the DHR-2 domain of DOCK2; made in house; host or cells: E. coli Arctic express DE3 (DOCK2 fragment); E. coli BL21 DE3 (GST-Rac)
T3 sequence (Q92608 1196-1622): T1 sequence (Q92608 1196-1622)

[5] = test system: neutrophils derived from the mouse bone marrow; assay: neutrophil migration assay 2 (EZ-TAXIScan, compound added to the fMLP source); assay type: cell-based; settings: 150 μM added to well with 3 μM fMLP, no pretreatment
Method: An examination was performed about the influence of cholesterol 3-sulfate on the migration speed of neutrophils when the cells and the chemical migration factor (fMLP) are added to the same well without pretreating the cells. […] Phase-contrast micrographs were obtained for 40 minutes at an interval of 30 seconds and analyzed by the same method as described above. (a) to (c) of FIG. 12 are graphs and photographs showing the experiment results.

[6] = test system: T cells (mouse spleen cells); assay: lymphocyte migration assay using transwell (CCL21); assay type: cell-based; settings: CCL21 300 ng/mL
Method: The influence of cholesterol 3-sulfate on the migration of T cells was examined. As a control, an experiment using T cells derived from a DOCK2 knockout mouse was also performed. More specifically, first, mouse spleen cells (1×10^7 cells/mL) were cultured for 1 hour at 37° C. in 0.5% BSA-containing RPMI-1640 (transwell medium) in the presence of cholesterol 3-sulfate at a predetermined concentration or in the presence of DMSO alone (control). The concentration of DMSO was adjusted such that the final concentration of DMSO became 0.2% in all samples. Then, a transwell medium containing chemokine CCL21 (300 ng/mL) and cholesterol 3-sulfate at a predetermined concentration was added to a 24-well plate, and then a transwell (with 5 μm pores, Corning) was set in the well so as to load the pre-cultured cells (1×10^6 cells/100 μL). Subsequently, the cells were incubated for 2 hours at 37° C., and the cells that moved to the lower chamber were collected and stained with PE-labeled anti Thy1.2-antibody (“53-2-1” model, BD Pharmingen). By dividing the number of Thy1.2-positive cells (T cells) in the lower chamber by the number of Thy1.2-positive cells (T cells) put into the transwell, the proportion of T cells having moved (migration of T cells (%)) was calculated. More specifically, first, mouse spleen cells (1×10^7 cells/mL) were cultured for 1 hour at 37° C. in 0.5% BSA-containing RPMI-1640 (transwell medium) in the presence of various steroid compounds at the concentration of 12.5 μM or in the presence of DMSO alone (control). The concentration of DMSO was adjusted such that the final concentration of DMSO became 0.2% in all samples. Then, by performing the transwell assay as described above, the effects of various steroid compounds on the migratory responses of T cells to CCL21 (300 ng/mL) were examined by comparison.

## CC(C)CCC[C@@H](C)[C@H]1CC[C@H]2[C@@H]3CC=C4C[C@@H](OS(=O)(=O)O)CC[C@]4(C)[C@H]3CC[C@]12C [C3S, cholesterol 3-sulfate]
[1]
  infiltration of inflammatory cells into the conjunctiva in response to ragweed pollen: further inhibited
[2]
  IC50: 2000 nM
[3]
  binding to the protein composed of lobe B and lobe C of the DHR-2 domain of DOCK2 (ELISA, absorbance 450 nm): specifically binds
[4]
  inhibition of binding of DOCK2 DHR-2 to GST-Rac (Western blotting): specifically inhibits the binding of DHR-2 to Rac
[5]
  migration of neutrophils towards fMLP source containing the compound: rapidly stop
[6]; 6.25 μM
  migration of T cells in response to CCL21: inhibited to the level of T cells derived from DOCK2 knockout mouse
[6]; 12.5 μM, Experimental Example 6
  migration of T cells in response to CCL21: specifically inhibits the migration of T cells
[6]; predetermined concentrations, Experimental Example 5
  migration of T cells in response to CCL21: markedly inhibited

— patent US12213984B2, “Immunoregulatory agent” (KYUSHU UNIVERSITY, NATIONAL UNIVERSITY CORPORATION, priority 2015, dated 2025)
